According to US8906944B2, “Compounds as tyrosine kinase modulators” (Allergan, Inc., priority 2009, dated 2014):

Experiments:
[1] = target: VEGFR1 (Homo sapiens, UniProt P17948); test: VEGFR1 enzyme assay; assay type: biochemical; conditions: Table IV, amide or urea linker
[2] = target: T1, human VEGF receptor (VEGFR-2) (Homo sapiens, UniProt P35968); test: VEGFR2 kinase assay; assay type: biochemical; conditions: His-VEGFR-2 cytoplasmic domain, 3.6 μM ATP; Table IV, amide or urea linker; read-out: VEGFR2 Enzyme IC50
T1 construct: The cytoplasmic domain of the human VEGF receptor (VEGFR-2) was expressed; His; made in house; host or cells: insect cells (baculovirus)
T1 sequence (P35968 786-1356 limits assumed): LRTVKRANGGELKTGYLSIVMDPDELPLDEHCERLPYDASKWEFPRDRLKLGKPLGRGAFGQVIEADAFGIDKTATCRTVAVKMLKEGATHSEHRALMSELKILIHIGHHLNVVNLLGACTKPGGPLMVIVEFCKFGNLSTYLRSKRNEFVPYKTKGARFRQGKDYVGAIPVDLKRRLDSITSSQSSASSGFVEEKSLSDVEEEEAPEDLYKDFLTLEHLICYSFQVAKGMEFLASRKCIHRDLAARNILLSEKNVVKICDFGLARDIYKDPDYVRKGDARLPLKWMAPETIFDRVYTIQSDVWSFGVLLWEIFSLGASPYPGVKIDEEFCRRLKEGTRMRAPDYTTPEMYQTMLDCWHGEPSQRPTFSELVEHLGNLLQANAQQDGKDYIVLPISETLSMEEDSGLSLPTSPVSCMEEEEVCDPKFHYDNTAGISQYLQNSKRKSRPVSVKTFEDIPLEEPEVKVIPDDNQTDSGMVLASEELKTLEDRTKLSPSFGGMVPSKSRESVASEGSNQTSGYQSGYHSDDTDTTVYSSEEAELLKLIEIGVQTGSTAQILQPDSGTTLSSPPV
Protocol: The cytoplasmic domain of the human VEGF receptor (VEGFR-2) was expressed as a Histidine-tagged fusion protein following infection of insect cells using an H is engineered baculovirus. […] Kinase assays were performed in 96 well microtiter plates that were coated overnight with 30 µg of poly-Glu-Tyr (4:1) in 10 mM Phosphate Buffered Saline (PBS), pH 7.2-7.4. The plates were incubated with 1% BSA and then washed four times with PBS prior to starting the reaction. Reactions were carried out in 120 µL reaction volumes containing 3.6 µM ATP in kinase buffer (50 mM Hepes buffer pH 7.4, 20 mM MgCl2, 0.1 mM MnCl2 and 0.2 mM Na3 VO4). […] Reactions were initiated by the addition 0.5 ng of purified protein. Following a ten minute incubation at 25 degree. […] IC50 values for compound inhibition were calculated directly from graphs of optical density (arbitrary units) versus compound concentration following subtraction of blank values.

[3] = target: VEGFR2 (Homo sapiens, UniProt P35968); test: VEGF stimulated Ca++ signal in vitro (FLIPR)
VEGFR2, sequence (P35968 20-1356): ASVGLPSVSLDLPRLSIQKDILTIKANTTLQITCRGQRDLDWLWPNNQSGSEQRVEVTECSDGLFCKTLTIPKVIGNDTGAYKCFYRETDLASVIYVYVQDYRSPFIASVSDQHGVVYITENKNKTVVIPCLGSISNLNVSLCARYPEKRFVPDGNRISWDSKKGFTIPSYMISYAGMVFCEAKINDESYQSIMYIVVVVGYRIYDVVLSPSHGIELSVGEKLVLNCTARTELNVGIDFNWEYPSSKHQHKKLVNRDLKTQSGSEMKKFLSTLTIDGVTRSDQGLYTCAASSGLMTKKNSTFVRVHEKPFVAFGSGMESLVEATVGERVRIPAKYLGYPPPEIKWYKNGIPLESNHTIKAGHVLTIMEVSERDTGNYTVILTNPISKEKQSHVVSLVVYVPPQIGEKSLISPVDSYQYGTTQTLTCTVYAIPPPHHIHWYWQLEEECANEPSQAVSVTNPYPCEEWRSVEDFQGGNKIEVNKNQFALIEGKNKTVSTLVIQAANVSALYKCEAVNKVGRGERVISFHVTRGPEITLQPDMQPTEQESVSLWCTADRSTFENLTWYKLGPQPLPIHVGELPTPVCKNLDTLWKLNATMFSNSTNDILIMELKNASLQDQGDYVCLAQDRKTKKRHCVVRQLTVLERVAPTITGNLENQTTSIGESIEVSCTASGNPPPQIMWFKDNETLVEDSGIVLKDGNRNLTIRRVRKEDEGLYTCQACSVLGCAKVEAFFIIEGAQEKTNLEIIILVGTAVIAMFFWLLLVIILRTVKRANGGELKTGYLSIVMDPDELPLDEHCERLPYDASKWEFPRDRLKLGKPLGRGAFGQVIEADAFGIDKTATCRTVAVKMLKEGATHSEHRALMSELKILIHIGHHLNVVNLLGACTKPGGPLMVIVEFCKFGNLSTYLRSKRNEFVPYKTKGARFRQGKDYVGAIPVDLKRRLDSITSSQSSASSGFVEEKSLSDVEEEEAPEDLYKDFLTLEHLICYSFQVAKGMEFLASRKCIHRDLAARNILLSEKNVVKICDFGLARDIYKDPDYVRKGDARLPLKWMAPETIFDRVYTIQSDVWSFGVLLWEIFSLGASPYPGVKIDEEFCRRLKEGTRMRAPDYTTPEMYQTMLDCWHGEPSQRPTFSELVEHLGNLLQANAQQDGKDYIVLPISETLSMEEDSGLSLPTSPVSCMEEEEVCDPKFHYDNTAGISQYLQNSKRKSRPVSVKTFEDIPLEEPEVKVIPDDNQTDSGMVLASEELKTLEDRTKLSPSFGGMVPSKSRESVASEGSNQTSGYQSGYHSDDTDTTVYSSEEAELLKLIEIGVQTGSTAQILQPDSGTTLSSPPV
Protocol: VEGF Stimulated Ca^++Signal in Vitro
Automated FLIPR (Fluorometric Imaging Plate Reader) technology was used to screen for inhibitors of VEGF induced increases in intracellular calcium levels in fluorescent dye loaded endothelial cells. HUVEC (human umbilical vein endothelial cells) (Clonetics) were seeded in 96-well fibronectin coated black-walled plates overnight at 37 degree. C./5% CO2. […] C. Cells were washed 4 times (Original Cell Wash, Labsystems) to remove extracellular dye. […] Data were generated by determining max-min fluorescence levels for unstimulated, stimulated, and drug treated samples. IC50 values for test compounds were calculated from % inhibition of VEGF stimulated responses in the absence of inhibitor.

[4] = target: PDGFβ (Homo sapiens, UniProt P09619); test: PDGFβ enzyme assay; assay type: biochemical; conditions: Table IV, amide or urea linker
PDGFβ, sequence (P09619 33-1106): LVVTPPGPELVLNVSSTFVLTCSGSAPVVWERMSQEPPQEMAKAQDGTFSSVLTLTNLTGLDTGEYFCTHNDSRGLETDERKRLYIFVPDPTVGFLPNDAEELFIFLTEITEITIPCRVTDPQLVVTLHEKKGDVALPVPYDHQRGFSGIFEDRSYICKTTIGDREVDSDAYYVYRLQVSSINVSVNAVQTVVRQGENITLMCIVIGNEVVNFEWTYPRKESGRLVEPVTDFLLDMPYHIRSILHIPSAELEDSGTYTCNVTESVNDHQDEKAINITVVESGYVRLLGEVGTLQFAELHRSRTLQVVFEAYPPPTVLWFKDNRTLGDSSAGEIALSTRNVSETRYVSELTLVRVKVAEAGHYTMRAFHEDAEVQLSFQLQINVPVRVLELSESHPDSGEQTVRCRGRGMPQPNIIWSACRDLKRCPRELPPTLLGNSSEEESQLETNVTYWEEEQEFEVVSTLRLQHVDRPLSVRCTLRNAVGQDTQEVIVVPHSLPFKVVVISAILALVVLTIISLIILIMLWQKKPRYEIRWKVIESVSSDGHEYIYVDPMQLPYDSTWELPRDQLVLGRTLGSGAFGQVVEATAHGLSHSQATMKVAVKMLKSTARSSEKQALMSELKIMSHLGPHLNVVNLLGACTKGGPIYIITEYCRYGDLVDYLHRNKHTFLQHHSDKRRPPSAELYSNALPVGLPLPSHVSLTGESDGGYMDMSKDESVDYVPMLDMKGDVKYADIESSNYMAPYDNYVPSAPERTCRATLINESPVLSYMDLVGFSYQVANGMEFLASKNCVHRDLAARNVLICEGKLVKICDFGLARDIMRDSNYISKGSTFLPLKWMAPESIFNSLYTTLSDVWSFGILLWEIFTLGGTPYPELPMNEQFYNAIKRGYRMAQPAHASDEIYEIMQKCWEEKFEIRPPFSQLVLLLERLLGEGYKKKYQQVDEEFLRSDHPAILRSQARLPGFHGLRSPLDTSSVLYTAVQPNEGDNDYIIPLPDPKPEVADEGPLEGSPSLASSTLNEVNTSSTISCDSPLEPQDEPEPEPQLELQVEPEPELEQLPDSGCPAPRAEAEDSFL

VEGFR1, sequence (P17948 27-1338, species assumed): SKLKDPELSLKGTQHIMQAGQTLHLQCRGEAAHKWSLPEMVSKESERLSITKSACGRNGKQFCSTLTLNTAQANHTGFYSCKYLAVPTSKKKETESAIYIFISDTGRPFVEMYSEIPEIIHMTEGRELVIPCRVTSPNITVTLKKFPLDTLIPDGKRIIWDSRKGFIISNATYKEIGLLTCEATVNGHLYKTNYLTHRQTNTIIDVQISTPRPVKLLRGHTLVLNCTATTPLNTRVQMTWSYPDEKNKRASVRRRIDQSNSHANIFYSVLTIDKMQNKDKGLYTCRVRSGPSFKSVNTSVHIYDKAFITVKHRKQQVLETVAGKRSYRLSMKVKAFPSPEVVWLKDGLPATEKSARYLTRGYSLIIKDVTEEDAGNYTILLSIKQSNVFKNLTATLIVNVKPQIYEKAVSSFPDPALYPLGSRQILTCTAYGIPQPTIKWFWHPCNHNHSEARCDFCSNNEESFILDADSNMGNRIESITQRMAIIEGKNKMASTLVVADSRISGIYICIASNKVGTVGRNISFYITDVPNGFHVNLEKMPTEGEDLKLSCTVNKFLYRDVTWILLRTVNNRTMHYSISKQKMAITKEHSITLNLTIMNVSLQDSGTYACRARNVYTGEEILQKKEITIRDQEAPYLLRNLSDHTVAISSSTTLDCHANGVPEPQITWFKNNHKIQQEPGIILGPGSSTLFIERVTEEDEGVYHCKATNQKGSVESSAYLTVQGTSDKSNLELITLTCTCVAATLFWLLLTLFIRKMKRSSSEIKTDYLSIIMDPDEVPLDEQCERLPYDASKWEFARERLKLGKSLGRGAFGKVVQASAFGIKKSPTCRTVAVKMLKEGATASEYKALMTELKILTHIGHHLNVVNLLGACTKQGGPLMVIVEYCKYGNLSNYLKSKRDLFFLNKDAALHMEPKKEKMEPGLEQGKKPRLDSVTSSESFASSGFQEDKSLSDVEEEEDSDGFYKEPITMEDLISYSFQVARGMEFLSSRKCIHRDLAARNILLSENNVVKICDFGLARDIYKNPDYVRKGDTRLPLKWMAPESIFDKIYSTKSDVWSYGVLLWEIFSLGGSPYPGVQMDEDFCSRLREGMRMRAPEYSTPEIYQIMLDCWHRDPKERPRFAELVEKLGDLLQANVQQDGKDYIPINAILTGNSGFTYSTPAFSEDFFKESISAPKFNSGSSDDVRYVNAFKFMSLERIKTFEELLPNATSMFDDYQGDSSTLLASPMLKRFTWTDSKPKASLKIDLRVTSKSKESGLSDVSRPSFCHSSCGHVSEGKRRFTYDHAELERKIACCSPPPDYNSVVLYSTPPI

Row | IC50 [1] [nM] | IC50 [2] [nM] | IC50 [3] [nM] | IC50 [4] [nM] | Structure (SMILES)
1 | 32 | 27 | 5 | – | COC(=O)[C@@H]1CCCN1CCCNC(=O)c1c[nH]c(-c2cc(Oc3ccc(F)c(NC(=O)c4occc4C)c3)ccn2)c1 [Example 188, methyl 1-[3-({[5-(4-{4-fluoro-3-[(3-methyl-2-furoyl)amino]phenoxy}pyridin-2-yl)-1H-pyrrol-3-yl]carbonyl}amino)propyl]pyrrolidine-2-carboxylate]
2 | 37 | 34 | 15 | – | Cc1ccoc1C(=O)Nc1cc(Oc2ccnc(-c3cc(C(=O)NCCCN4CCC(O)CC4)c[nH]3)c2)ccc1F [Example 189, 5-(4-{4-fluoro-3-[(3-methyl-2-furoyl)amino]phenoxy}pyridin-2-yl)-N-[3-(4-hydroxypiperidin-1-yl)propyl]-1H-pyrrole-3-carboxamide]
3 | 35 | 31 | 11 | – | Cc1ccoc1C(=O)Nc1cc(Oc2ccnc(-c3cc(C(=O)NCCCN4CCN(C)CC4)c[nH]3)c2)ccc1F [Example 193, 5-(4-{4-fluoro-3-[(3-methyl-2-furoyl)amino]phenoxy}pyridin-2-yl)-N-[3-(4-methylpiperazin-1-yl)propyl]-1H-pyrrole-3-carboxamide]
4 | – | 9 | 5 | 22 | COCCOC(=O)CCCNC(=O)c1c[nH]c(-c2cc(Oc3ccc(NC(=O)Nc4cc(C)ccc4F)cc3)ccn2)c1 [Example 233, 2-methoxyethyl 4-{[(5-{4-[4-({[(2-fluoro-5-methylphenyl)amino]carbonyl}amino)phenoxy]pyridin-2-yl}-1H-pyrrol-3-yl)carbonyl]amino}butanoate]
5 | 11 | 8 | – | 17 | Cc1ccc(F)c(NC(=O)Nc2ccc(Oc3ccnc(-c4cc(C(=O)NCCCC(=O)OCC(CO)(CO)CO)c[nH]4)c3)cc2)c1 [Example 234, 3-hydroxy-2,2-bis(hydroxymethyl)propyl 4-{[(5-{4-[4-({[(2-fluoro-5-methylphenyl)amino]carbonyl}amino)phenoxy]pyridin-2-yl}-1H-pyrrol-3-yl)carbonyl]amino}butanoate]
6 | – | 19 | 4 | 28 | Cc1cccc(NC(=O)Nc2ccc(Oc3ccnc(-c4cc(C(=O)NN)c[nH]4)c3)cc2)c1 [Example 238, 1-[4-({2-[4-(hydrazinocarbonyl)-1H-pyrrol-2-yl]pyridin-4-yl}oxy)phenyl]-3-(3-methylphenyl)urea]
7 | – | 7 | 2 | 16 | Cc1cccc(NC(=O)Nc2ccc(Oc3ccnc(-c4cc(C(=O)NCCCN5CCOCC5)c[nH]4)c3)cc2)c1 [Example 239, 5-{4-[4-({[(3-methylphenyl)amino]carbonyl}amino)phenoxy]pyridin-2-yl}-N-(3-morpholin-4-ylpropyl)-1H-pyrrole-3-carboxamide]
8 | 31 | 12 | – | 94 | Cc1ccc(F)c(NC(=O)c2ccc(F)c(Oc3ccnc(-c4cc(C(=O)NCCCO)c[nH]4)c3)c2)c1 [Example 244, 5-[4-(2-fluoro-5-{[(2-fluoro-5-methylphenyl)amino]carbonyl}phenoxy)pyridin-2-yl]-N-(3-hydroxypropyl)-1H-pyrrole-3-carboxamide]
9 | 25 | 15 | – | 21 | Cc1ccc(F)c(NC(=O)Nc2ccc(Oc3ccnc(-c4cc(C(=O)NCCCN5CCCC5C(=O)O)c[nH]4)c3)cc2)c1 (stereo not drawn) [Example 247, 1-(3-{[(5-{4-[4-({[(2-fluoro-5-methylphenyl)amino]carbonyl}amino)phenoxy]pyridin-2-yl}-1H-pyrrol-3-yl)carbonyl]amino}propyl)pyrrolidine-2-carboxylic acid]
10 | 46 | 33 | – | 55 | COC(=O)CC[C@H](NC(=O)c1c[nH]c(-c2cc(Oc3cc(C(=O)Nc4cc(C)ccc4F)ccc3F)ccn2)c1)C(=O)OC [Example 249, dimethyl 2-[({5-[4-(2-fluoro-5-{[(2-fluoro-5-methylphenyl)amino]carbonyl}phenoxy)pyridin-2-yl]-1H-pyrrol-3-yl}carbonyl)amino]pentanedioate]
11 | 8 | 24 | – | 54 | Cc1ccc(F)c(NC(=O)Nc2ccc(Oc3ccnc(-c4cc(C(=O)NCCCN)c[nH]4)c3)cc2)c1 [Example 250, N-(3-aminopropyl)-5-{4-[4-({[(2-fluoro-5-methylphenyl)amino]carbonyl}amino)phenoxy]pyridin-2-yl}-1H-pyrrole-3-carboxamide]
12 | 18 | 46 | – | 79 | Cc1ccc(F)c(NC(=O)Nc2ccc(Oc3ccnc(-c4cc(C(=O)NCCCNC(=O)OC(C)(C)C)c[nH]4)c3)cc2)c1 [Example 251, tert-butyl (3-{[(5-{4-[4-({[(2-fluoro-5-methylphenyl)amino]carbonyl}amino)phenoxy]pyridin-2-yl}-1H-pyrrol-3-yl)carbonyl]amino}propyl)carbamate]
13 | 25 | 24 | – | 99 | Cc1ccc(F)c(NC(=O)c2ccc(F)c(Oc3ccnc(-c4cc(C(=O)NCCCN)c[nH]4)c3)c2)c1 [Example 252, N-(3-aminopropyl)-5-[4-(2-fluoro-5-{[(2-fluoro-5-methylphenyl)amino]carbonyl}phenoxy)pyridin-2-yl]-1H-pyrrole-3-carboxamide]
14 | 36 | 64 | – | 200 | Cc1ccc(F)c(NC(=O)c2ccc(F)c(Oc3ccnc(-c4cc(C(=O)NCCCNC(=O)OC(C)(C)C)c[nH]4)c3)c2)c1 [Example 253, tert-butyl {3-[({5-[4-(2-fluoro-5-{[(2-fluoro-5-methylphenyl)amino]carbonyl}phenoxy)pyridin-2-yl]-1H-pyrrol-3-yl}carbonyl)amino]propyl}carbamate]
15 | 35 | 24 | – | 35 | Cc1ccc(F)c(NC(=O)c2ccc(F)c(Oc3ccnc(-c4cc(C(=O)NCCCN5CCOCC5)c[nH]4)c3)c2)c1 [Example 254, 5-[4-(2-fluoro-5-{[(2-fluoro-5-methylphenyl)amino]carbonyl}phenoxy)pyridin-2-yl]-N-(3-morpholin-4-ylpropyl)-1H-pyrrole-3-carboxamide]
16 | 44 | 28 | – | 185 | CCNC(=O)[C@H](CCC(=O)O)NC(=O)c1c[nH]c(-c2cc(Oc3cc(C(=O)Nc4cc(C)ccc4F)ccc3F)ccn2)c1 [Example 255, 5-(ethylamino)-4-[({5-[4-(2-fluoro-5-{[(2-fluoro-5-methylphenyl)amino]carbonyl}phenoxy)pyridin-2-yl]-1H-pyrrol-3-yl}carbonyl)amino]-5-oxopentanoic acid]
17 | 24 | 55 | – | 167 | CCNC(=O)[C@H](CCC(=O)OC(C)(C)C)NC(=O)c1c[nH]c(-c2cc(Oc3cc(C(=O)Nc4cc(C)ccc4F)ccc3F)ccn2)c1 [Example 256, tert-butyl 5-(ethylamino)-4-[({5-[4-(2-fluoro-5-{[(2-fluoro-5-methylphenyl)amino]carbonyl}phenoxy)pyridin-2-yl]-1H-pyrrol-3-yl}carbonyl)amino]-5-oxopentanoate]
18 | 21 | 36 | – | 41 | Cc1ccc(F)c(NC(=O)c2ccc(F)c(Oc3ccnc(-c4cc(C(=O)NCCC(=O)O)c[nH]4)c3)c2)c1 [Example 258, 3-[({5-[4-(2-fluoro-5-{[(2-fluoro-5-methylphenyl)amino]carbonyl}phenoxy)pyridin-2-yl]-1H-pyrrol-3-yl}carbonyl)amino]propanoic acid]
19 | 23 | 35 | – | 47 | COC(=O)CCNC(=O)c1c[nH]c(-c2cc(Oc3cc(C(=O)Nc4cc(C)ccc4F)ccc3F)ccn2)c1 [Example 259, methyl 3-[({5-[4-(2-fluoro-5-{[(2-fluoro-5-methylphenyl)amino]carbonyl}phenoxy)pyridin-2-yl]-1H-pyrrol-3-yl}carbonyl)amino]propanoate]
20 | 15 | 14 | – | 16 | Cc1ccc(F)c(NC(=O)Nc2ccc(Oc3ccnc(-c4csc(C(=O)NCCC(=O)O)c4)c3)cc2)c1 [Example 278, 3-{[(4-{4-[4-({[(2-fluoro-5-methylphenyl)amino]carbonyl}amino)phenoxy]pyridin-2-yl}-2-thienyl)carbonyl]amino}propanoic acid]
21 | – | 21 | 1 | 23 | COC(=O)CCNC(=O)c1cc(-c2cc(Oc3ccc(NC(=O)Nc4cc(C)ccc4F)cc3)ccn2)cs1 [Example 279, methyl 3-{[(4-{4-[4-({[(2-fluoro-5-methylphenyl)amino]carbonyl}amino)phenoxy]pyridin-2-yl}-2-thienyl)carbonyl]amino}propanoate]

Row | Structure (SMILES) | IC50 [1] [nM] | IC50 [2] [nM] | IC50 [3] [nM] | IC50 [4] [nM]
22 | Cc1ccc(F)c(NC(=O)c2ccc(F)c(Oc3ccnc(-c4cc(C(=O)N[C@@H](CCC(=O)OC(C)(C)C)C(=O)O)c[nH]4)c3)c2)c1 [Example 257, 5-tert-butoxy-2-[({5-[4-(2-fluoro-5-{[(2-fluoro-5-methylphenyl)amino]carbonyl}phenoxy)pyridin-2-yl]-1H-pyrrol-3-yl}carbonyl)amino]-5-oxopentanoic acid] | 18 | 53 | – | 180
